These results are taken from patent US10203320B2, “Label free method for assessing chemical cardiotoxicity” (Corning Incorporated, priority 2012, dated 2019).

For assay [1], the system named is cultured human iPS-derived cardiomyocytes. The assay can be described thus: Label-free beat pattern (resonant light intensity imaging) of cultured cardiomyocytes on RWG biosensor. Particulars: Cardiomyocyte, 0.25 h, read-out: IC50, dose-dependent decrease/block of beating (beat rate and amplitude) of cultured cardiomyocytes.
Assay [2] has the same test system. The assay can be described thus: Dynamic mass redistribution (DMR) assay of cultured cardiomyocytes on RWG biosensor. The format is cell-based. The conditions noted are these: 160 nM. On the procedure: Coating of EPIC® resonant waveguide grating (RWG) biosensors. […] VN is the abbreviation of a vitronectin peptide ([…]). First, a functionalized cell adhesive peptide-copolymer was prepared. […] The mobile phase was trifluoroethanol and potassium trifluoroacetate. […] Standards were prepared using the VN peptide in PBS. Absorbance was read on a BIOTEK® Synergy 4.
First Mode The resonant waveguide grating biosensor is illuminated at a normal incidence angle by a collimated LED (light emitting diode) beam, which passes through a tunable optical filter with a pass band width of 1 nm. The illuminated sensor area was imaged to a high speed CMOS (complementary metal-oxide-semiconductor) camera. Spectral images were acquired synchronously when the tunable filter sweeps through a wavelength range which covers the resonances of the biosensors. The image stack contains sensor spectra in all the pixels, where resonance wavelengths are extracted in a 2D image. Normally in each acquisition, the wavelength sweep is from 825 nm to 840 nm, or 820 nm to 835 nm for a duration of 3 seconds, and 150 frames of images were acquired during the wavelength scan. For typical long-term DMR assays, the update rate was from 15 seconds to minutes, with multiple scans averaged into a single data point. […]

As for `COc1cc(N)c(Cl)cc1C(=O)NC1CCN(CCCOc2ccc(F)cc2)CC1OC` (stereo not shown) [cisapride, cisapride monohydrate], the IC50 in assay [1] is about 160 nM.
With `CC(C)NC[C@H](O)c1ccc(O)c(O)c1` [isoprotenerol, (−)-Isoproterenol], the “DMR signal of cultured cardiomyocytes in response to stimulation” value in assay [2] (compared to negative control (assay vehicle), 37° C., FIG. 3) is recorded as “more sustained DMR signal”. The “oscillation pattern of the DMR signal after stimulation” value in assay [2] (compared to the baseline and the DMR induced by the assay buffer) is reported as “became smaller but with higher frequency”.
As to `COC(=O)C1=C(C)NC(C)=C(C(=O)OC(C)C)C1c1cccc2nonc12` (stereo not shown) [isradipine], in assay [1], the IC50 is about 100 nM.
